Test results: the kinase profiling compilation of Christmann-Franck et al. (2016)

Columns and labels:
Conditions in all cases: compound 10.0 µM
CSNK1A1 (human) = CSNK1A1 (human) (UniProt P48729)
NEK2 (human) = NEK2 (human) (UniProt P51955)
PHKG2 (human) = PHKG2 (human) (UniProt P15735)
MAP2K4 (human) = MAP2K4 (human) (UniProt P45985)
FGFR4 (human) = FGFR4 (human) (UniProt P22455)
RPS6KA2 KD2 (human) = RPS6KA2 KD2 (human) (UniProt Q15349)
CDC2L2 (human) = CDC2L2 (human) (UniProt Q9UQ88)
PRKD2 (human) = PRKD2 (human) (UniProt Q9BZL6)
CAMK2G (human) = CAMK2G (human) (UniProt Q13555)
[1] = tested on: FLT3 (human), P36888 [R834Q]
MAP2K6 (human) = MAP2K6 (human) (UniProt P52564)
NTRK1 (human) = NTRK1 (human) (UniProt P04629)
NTRK2 (human) = NTRK2 (human) (UniProt Q16620)
RIPK1 (human) = RIPK1 (human) (UniProt Q13546)
MAPK12 (human) = MAPK12 (human) (UniProt P53778)
SRMS (human) = SRMS (human) (UniProt Q9H3Y6)
MYLK4 (human) = MYLK4 (human) (UniProt Q86YV6)
MTOR (human) = MTOR (human) (UniProt P42345)
SRPK1 (human) = SRPK1 (human) (UniProt Q96SB4)
MAP3K1 (human) = MAP3K1 (human) (UniProt Q13233)
FGR (human) = FGR (human) (UniProt P09769)
PLK1 (human) = PLK1 (human) (UniProt P53350)
MAP3K4 (human) = MAP3K4 (human) (UniProt Q9Y6R4)
IKBKB (human) = IKBKB (human) (UniProt O14920)
KIT (human) = KIT (human) (UniProt P10721)
ROCK2 (human) = ROCK2 (human) (UniProt O75116)
Chain of ROCK2 (human) (O75116 whole entry, looked up): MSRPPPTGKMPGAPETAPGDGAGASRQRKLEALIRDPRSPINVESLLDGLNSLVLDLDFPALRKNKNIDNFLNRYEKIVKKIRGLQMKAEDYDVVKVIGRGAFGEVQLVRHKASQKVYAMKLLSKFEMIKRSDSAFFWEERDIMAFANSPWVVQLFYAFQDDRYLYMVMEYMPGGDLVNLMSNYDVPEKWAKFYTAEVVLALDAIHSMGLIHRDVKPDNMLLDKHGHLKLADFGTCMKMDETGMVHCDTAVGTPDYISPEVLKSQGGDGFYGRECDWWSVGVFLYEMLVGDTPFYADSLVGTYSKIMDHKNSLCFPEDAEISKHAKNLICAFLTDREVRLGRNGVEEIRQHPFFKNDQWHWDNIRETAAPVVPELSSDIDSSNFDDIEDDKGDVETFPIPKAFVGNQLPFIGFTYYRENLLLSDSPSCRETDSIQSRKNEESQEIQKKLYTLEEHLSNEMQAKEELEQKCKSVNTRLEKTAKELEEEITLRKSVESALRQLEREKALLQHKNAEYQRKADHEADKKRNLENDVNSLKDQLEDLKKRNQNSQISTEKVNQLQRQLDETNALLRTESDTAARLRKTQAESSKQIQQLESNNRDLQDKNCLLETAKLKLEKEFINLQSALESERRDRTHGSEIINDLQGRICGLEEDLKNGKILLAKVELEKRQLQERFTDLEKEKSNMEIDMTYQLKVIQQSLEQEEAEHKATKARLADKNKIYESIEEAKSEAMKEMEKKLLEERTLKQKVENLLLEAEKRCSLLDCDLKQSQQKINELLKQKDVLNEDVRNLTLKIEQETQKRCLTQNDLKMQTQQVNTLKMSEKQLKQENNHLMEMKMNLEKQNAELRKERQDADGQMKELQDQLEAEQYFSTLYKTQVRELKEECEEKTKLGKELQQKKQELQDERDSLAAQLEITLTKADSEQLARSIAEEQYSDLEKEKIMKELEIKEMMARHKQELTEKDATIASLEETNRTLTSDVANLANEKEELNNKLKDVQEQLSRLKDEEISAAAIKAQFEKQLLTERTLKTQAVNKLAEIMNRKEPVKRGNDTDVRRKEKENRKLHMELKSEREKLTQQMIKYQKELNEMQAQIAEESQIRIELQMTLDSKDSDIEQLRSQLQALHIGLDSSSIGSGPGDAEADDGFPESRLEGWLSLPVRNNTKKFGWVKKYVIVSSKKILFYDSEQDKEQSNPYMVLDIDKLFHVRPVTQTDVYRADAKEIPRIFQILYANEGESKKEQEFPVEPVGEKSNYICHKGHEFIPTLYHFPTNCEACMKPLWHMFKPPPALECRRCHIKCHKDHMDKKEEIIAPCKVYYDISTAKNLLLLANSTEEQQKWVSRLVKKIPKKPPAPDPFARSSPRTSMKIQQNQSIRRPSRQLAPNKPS

MAPK1 (human) = MAPK1 (human) (UniProt P28482)
IRAK1 (human) = IRAK1 (human) (UniProt P51617)
LATS2 (human) = LATS2 (human) (UniProt Q9NRM7)
Chain of LATS2 (human) (Q9NRM7 whole entry, looked up): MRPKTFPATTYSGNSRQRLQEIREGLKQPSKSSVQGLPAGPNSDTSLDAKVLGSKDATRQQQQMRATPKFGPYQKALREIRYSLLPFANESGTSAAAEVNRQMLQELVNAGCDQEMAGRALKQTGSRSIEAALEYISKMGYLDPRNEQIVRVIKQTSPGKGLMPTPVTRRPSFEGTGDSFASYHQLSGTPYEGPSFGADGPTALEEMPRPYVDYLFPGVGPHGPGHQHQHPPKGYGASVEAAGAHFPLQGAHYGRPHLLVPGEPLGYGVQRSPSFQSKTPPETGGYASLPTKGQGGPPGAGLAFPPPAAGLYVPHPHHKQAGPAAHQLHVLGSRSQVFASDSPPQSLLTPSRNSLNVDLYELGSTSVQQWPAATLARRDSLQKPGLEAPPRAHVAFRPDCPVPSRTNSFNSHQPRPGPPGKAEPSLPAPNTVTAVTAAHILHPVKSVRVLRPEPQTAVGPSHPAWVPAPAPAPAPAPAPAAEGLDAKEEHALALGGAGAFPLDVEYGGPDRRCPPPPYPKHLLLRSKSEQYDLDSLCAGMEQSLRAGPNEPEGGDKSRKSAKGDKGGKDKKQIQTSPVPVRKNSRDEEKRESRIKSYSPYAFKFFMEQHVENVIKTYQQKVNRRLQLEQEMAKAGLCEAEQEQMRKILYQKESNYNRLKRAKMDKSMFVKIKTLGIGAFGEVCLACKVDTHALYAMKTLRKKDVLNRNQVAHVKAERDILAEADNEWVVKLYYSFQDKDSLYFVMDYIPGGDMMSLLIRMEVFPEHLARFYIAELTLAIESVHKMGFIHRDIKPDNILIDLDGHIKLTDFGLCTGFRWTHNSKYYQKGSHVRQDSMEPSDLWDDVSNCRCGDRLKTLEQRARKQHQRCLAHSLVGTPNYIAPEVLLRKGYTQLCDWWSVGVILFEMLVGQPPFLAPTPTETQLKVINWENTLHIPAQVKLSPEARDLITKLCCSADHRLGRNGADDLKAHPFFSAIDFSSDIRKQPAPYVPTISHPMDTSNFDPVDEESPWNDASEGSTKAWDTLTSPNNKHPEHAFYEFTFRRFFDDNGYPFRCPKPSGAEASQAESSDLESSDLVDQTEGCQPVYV

CDK7 (human) = CDK7 (human) (UniProt P50613)
TTK (human) = TTK (human) (UniProt P33981)
RPS6KA5 KD1 (human) = RPS6KA5 KD1 (human) (UniProt O75582)
MAP3K3 (human) = MAP3K3 (human) (UniProt Q99759)
PIM1 (human) = PIM1 (human) (UniProt P11309)
AKT3 (human) = AKT3 (human) (UniProt Q9Y243)
MAP3K11 (human) = MAP3K11 (human) (UniProt Q16584)
STK33 (human) = STK33 (human) (UniProt Q9BYT3)
CSNK2A1 (human) = CSNK2A1 (human) (UniProt P68400)
Chain of CSNK2A1 (human) (P68400 whole entry, looked up): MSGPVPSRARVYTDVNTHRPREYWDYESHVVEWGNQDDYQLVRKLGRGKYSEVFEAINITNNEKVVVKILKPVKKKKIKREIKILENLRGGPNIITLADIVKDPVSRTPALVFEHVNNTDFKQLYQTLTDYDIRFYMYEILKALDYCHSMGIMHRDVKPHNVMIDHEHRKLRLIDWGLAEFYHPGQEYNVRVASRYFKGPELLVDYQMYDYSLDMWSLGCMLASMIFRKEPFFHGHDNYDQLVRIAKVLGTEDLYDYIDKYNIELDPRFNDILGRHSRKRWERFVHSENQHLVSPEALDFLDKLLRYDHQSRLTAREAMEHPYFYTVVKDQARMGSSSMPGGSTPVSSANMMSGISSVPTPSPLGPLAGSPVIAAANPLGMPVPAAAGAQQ

MLTK (human) = MLTK (human) (UniProt Q9NYL2)
Chain of MLTK (human) (Q9NYL2 whole entry, looked up): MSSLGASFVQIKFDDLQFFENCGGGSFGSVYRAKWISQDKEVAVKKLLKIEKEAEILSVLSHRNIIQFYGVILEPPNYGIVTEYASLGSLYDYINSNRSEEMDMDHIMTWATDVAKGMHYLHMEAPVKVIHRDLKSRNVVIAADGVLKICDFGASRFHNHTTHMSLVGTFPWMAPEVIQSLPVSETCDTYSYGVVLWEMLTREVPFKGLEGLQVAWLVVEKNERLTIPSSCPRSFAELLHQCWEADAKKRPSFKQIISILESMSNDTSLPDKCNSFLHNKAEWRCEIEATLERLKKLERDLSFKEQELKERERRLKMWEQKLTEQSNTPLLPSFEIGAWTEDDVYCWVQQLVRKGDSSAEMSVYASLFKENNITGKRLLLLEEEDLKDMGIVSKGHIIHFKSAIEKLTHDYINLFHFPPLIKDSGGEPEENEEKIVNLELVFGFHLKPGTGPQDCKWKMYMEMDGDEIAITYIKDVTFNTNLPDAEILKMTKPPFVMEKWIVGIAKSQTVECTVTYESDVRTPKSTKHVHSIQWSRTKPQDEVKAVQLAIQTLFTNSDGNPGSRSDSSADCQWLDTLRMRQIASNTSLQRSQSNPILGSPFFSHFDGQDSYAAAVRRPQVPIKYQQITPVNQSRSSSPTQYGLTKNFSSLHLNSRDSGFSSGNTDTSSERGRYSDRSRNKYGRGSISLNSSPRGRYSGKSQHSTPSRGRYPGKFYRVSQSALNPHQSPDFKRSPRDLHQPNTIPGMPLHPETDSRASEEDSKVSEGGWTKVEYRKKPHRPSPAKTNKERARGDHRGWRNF

STK32A (human) = STK32A (human) (UniProt Q8WU08)
Chain of STK32A (human) (Q8WU08 whole entry, looked up): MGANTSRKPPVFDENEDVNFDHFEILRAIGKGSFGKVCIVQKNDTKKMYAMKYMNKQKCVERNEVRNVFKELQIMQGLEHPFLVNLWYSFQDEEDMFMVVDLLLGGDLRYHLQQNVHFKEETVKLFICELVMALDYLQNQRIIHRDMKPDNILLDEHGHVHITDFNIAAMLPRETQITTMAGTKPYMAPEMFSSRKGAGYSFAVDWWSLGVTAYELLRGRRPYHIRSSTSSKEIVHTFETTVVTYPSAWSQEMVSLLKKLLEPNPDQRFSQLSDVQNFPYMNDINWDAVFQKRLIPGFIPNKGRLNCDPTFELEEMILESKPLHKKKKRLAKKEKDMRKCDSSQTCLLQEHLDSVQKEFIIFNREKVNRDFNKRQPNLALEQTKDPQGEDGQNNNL

MAP4K4 (human) = MAP4K4 (human) (UniProt O95819)

Chain of CSNK1A1 (human) (P48729 whole entry, looked up): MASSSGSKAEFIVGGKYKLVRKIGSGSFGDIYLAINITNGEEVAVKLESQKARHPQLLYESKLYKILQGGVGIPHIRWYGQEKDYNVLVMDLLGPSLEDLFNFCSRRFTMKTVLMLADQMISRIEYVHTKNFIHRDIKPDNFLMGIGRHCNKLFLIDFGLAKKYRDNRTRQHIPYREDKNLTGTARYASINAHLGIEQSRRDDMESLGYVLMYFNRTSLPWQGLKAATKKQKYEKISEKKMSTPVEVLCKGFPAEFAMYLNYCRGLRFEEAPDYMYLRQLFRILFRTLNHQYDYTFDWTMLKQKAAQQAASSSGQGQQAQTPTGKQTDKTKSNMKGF
Chain of NEK2 (human) (P51955 whole entry, looked up): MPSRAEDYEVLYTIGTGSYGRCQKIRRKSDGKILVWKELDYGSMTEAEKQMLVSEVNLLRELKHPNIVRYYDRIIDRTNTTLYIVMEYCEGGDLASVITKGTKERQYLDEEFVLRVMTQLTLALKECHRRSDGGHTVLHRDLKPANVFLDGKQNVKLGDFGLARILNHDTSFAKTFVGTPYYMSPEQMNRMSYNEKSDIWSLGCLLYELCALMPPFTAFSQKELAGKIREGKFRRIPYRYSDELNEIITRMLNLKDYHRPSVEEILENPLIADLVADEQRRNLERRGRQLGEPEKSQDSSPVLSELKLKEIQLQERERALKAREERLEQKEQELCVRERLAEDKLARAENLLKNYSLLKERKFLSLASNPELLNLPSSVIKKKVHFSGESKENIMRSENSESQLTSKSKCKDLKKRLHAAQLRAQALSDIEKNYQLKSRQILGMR

Question: Which results are given for `CNC(=O)c1cc(Oc2ccc(NC(=O)Nc3ccc(Cl)c(C(F)(F)F)c3)cc2)ccn1`?
Answer: per cent of control (CSNK1A1 (human)): 100%; per cent of control (NEK2 (human)): 90%; per cent of control (PHKG2 (human)): 100%; per cent of control (MAP2K4 (human)): 85%; per cent of control (FGFR4 (human)): 43%; per cent of control (RPS6KA2 KD2 (human)): 59%; per cent of control (CDC2L2 (human)): 77%; per cent of control (PRKD2 (human)): 100%; per cent of control (CAMK2G (human)): 100%; per cent of control [1]: 12%; per cent of control (MAP2K6 (human)): 73%; per cent of control (NTRK1 (human)): 22%; per cent of control (NTRK2 (human)): 6.1%; per cent of control (RIPK1 (human)): 88%; per cent of control (MAPK12 (human)): 42%; per cent of control (SRMS (human)): 96%; per cent of control (MYLK4 (human)): 88%; per cent of control (MTOR (human)): 100%; per cent of control (SRPK1 (human)): 100%; per cent of control (MAP3K1 (human)): 89%; per cent of control (FGR (human)): 41%; per cent of control (PLK1 (human)): 100%; per cent of control (MAP3K4 (human)): 94%; per cent of control (IKBKB (human)): 100%; per cent of control (KIT (human)): 0%; per cent of control (ROCK2 (human)): 90%; per cent of control (MAPK1 (human)): 100%; per cent of control (IRAK1 (human)): 76%; per cent of control (LATS2 (human)): 100%; per cent of control (CDK7 (human)): 3.2%; per cent of control (TTK (human)): 15%; per cent of control (RPS6KA5 KD1 (human)): 77%; per cent of control (MAP3K3 (human)): 97%; per cent of control (PIM1 (human)): 100%; per cent of control (AKT3 (human)): 90%; per cent of control (MAP3K11 (human)): 74%; per cent of control (STK33 (human)): 6%; per cent of control (CSNK2A1 (human)): 100%; per cent of control (MLTK (human)): 0.6%; per cent of control (STK32A (human)): 100%; per cent of control (MAP4K4 (human)): 8.7%

Question: With `CNC(=O)c1cc(Oc2ccc(NC(=O)Nc3ccc(Cl)c(C(F)(F)F)c3)cc2)cc[n+]1[O-]` as the molecule, how does the per cent of control (CSNK1A1 (human)) read?
Answer: 100%

Question: And the per cent of control (NEK2 (human))?
Answer: 71%

Question: And the per cent of control (PHKG2 (human))?
Answer: 100%

Question: And the per cent of control (MAP2K4 (human))?
Answer: 60%

Question: What about the per cent of control (FGFR4 (human)) of the same molecule?
Answer: 39%

Question: And the per cent of control (RPS6KA2 KD2 (human))?
Answer: 42%

Question: What about the per cent of control (CDC2L2 (human)) of the same molecule?
Answer: 99%

Question: What about the per cent of control (PRKD2 (human)) of the same molecule?
Answer: 83%

Question: And the per cent of control (CAMK2G (human))?
Answer: 96%

Question: And the per cent of control [1]?
Answer: 9%

Question: And the per cent of control (MAP2K6 (human))?
Answer: 55%

Question: What about the per cent of control (NTRK1 (human)) of the same molecule?
Answer: 4%

Question: What about the per cent of control (NTRK2 (human)) of the same molecule?
Answer: 2.4%

Question: What about the per cent of control (RIPK1 (human)) of the same molecule?
Answer: 87%

Question: What about the per cent of control (MAPK12 (human)) of the same molecule?
Answer: 0.1%

Question: What about the per cent of control (SRMS (human)) of the same molecule?
Answer: 10%

Question: And the per cent of control (MYLK4 (human))?
Answer: 100%

Question: And the per cent of control (MTOR (human))?
Answer: 100%

Question: What about the per cent of control (SRPK1 (human)) of the same molecule?
Answer: 100%

Question: What about the per cent of control (MAP3K1 (human)) of the same molecule?
Answer: 100%

Question: And the per cent of control (FGR (human))?
Answer: 28%

Question: What about the per cent of control (PLK1 (human)) of the same molecule?
Answer: 100%

Question: And the per cent of control (MAP3K4 (human))?
Answer: 93%

Question: What about the per cent of control (IKBKB (human)) of the same molecule?
Answer: 61%

Question: What about the per cent of control (KIT (human)) of the same molecule?
Answer: 0%

Question: And the per cent of control (ROCK2 (human))?
Answer: 82%

Question: What about the per cent of control (MAPK1 (human)) of the same molecule?
Answer: 100%

Question: And the per cent of control (IRAK1 (human))?
Answer: 22%

Question: And the per cent of control (LATS2 (human))?
Answer: 100%

Question: And the per cent of control (CDK7 (human))?
Answer: 5%

Question: What about the per cent of control (TTK (human)) of the same molecule?
Answer: 9%

Question: What about the per cent of control (RPS6KA5 KD1 (human)) of the same molecule?
Answer: 59%

Question: What about the per cent of control (MAP3K3 (human)) of the same molecule?
Answer: 96%

Question: And the per cent of control (PIM1 (human))?
Answer: 100%

Question: And the per cent of control (AKT3 (human))?
Answer: 93%

Question: And the per cent of control (MAP3K11 (human))?
Answer: 89%

Question: And the per cent of control (STK33 (human))?
Answer: 6.9%

Question: What about the per cent of control (CSNK2A1 (human)) of the same molecule?
Answer: 94%

Question: And the per cent of control (MLTK (human))?
Answer: 0.85%

Question: What about the per cent of control (STK32A (human)) of the same molecule?
Answer: 92%

Question: And the per cent of control (MAP4K4 (human))?
Answer: 0.5%
